According to patent US12208092B2, “Compositions and methods for administering paltusotine to patients with hepatic impairment” (CRINETICS PHARMACEUTICALS, INC., priority 2023, dated 2025):

System: plasma GH
Test: suppression of plasma GH after rGHRH challenge in rat
Format: in vivo
Details: rat studies (GH and IGF-1 suppression)
Protocol: The in vivo pharmacological efficacy of paltusotine has been examined in rat and dog. In the rat, acute efficacy was evaluated by examining the suppression of plasma GH in response to a challenge with rat growth hormone releasing hormone (rGHRH). […] The effects of chronic, oral, 14-day administration of paltusotine were evaluated by measuring the sustained suppression of IGF-1 in the rat.

Question: For `C[C@@H](O)[C@@H]1NC(=O)[C@H](CCCCN)NC(=O)[C@@H](Cc2c[nH]c3ccccc23)NC(=O)[C@H](Cc2ccccc2)NC(=O)[C@@H](NC(=O)[C@H](N)Cc2ccccc2)CSSC[C@@H](C(=O)N[C@H](CO)[C@@H](C)O)NC1=O` [Octreotide, reference compound], which “maximal effects as positive control” value is on record?
Answer: maximal effects similar to orally administered paltusotine
